Patent publication US20040006048A1, “Combination of lecithin with ascorbic acid” (priority 2002, published 2004)

Legend:
Assay type in all cases: in vivo
[1] = test system: rats in scopolamine induced memory deficit; assay: Scopolamine induced memory deficit, water labyrinth learning test; details: scopolamine model, combination 2 × (30 + 10) mg/kg/day p.o.
normal mice = assay: Swimming test, physical performance of normal mice; details: for Swimming time (sec) mean ± S.E.M.: p.o., Vit-C 2 × 10, Lecithin 2 × 30, combination 2 × (30 + 10) mg/kg/day
Description: In the study ascorbic acid was ineffective, when it was given in itself (Table III.).

normal rats = assay: Learning process of normal rats in water labyrinth; details: for Number of errors Mean ± S.E.M. / Swimming time (sec) Mean ± SEM.: p.o., Vit.-C 2 × 10, Lecithin 2 × 30, combination 2 × (30 + 10) mg/kg/day
Description: Ascorbic acid and lecithin were ineffective when they were given separately (Table I.).

[2] = versus vehicle (control) and single components

CN1[C@@H]2C[C@@H](OC(=O)[C@H](CO)c3ccccc3)C[C@H]1[C@@H]1O[C@@H]12 [Scopolamine, scopolamine]
Number of errors Mean ± S.E.M. ([1]; session 1): 16.2 ± 0.83 | Swimming time (sec) mean ± S.E.M. ([1]; session 1): 114.7 ± 9.45 s | Number of errors Mean ± S.E.M. ([1]; session 2): 11.6 ± 0.52^++ | Swimming time (sec) mean ± S.E.M. ([1]; session 2): 73.7 ± 6.22 s | Number of errors Mean ± S.E.M. ([1]; session 3): 8.9 ± 0.41^++ | Number of errors Mean ± S.E.M. ([1]; session 4): 6.3 ± 0.26^++

O=C1O[C@H]([C@@H](O)CO)C(O)=C1O [Vit.-C, ascorbic acid]
Swimming time (sec) mean ± S.E.M. (normal mice; 1. day starting values): 76.2 ± 3.7 s | Swimming time (sec) mean ± S.E.M. (normal mice; 2. day): 70.8 ± 3.8 s | Swimming time (sec) mean ± S.E.M. (normal mice; 3. day): 82.2 ± 3.4 s | Swimming time (sec) mean ± S.E.M. (normal mice; 4. day): 88.8 ± 6.1 s | Swimming time (sec) mean ± S.E.M. (normal mice; 5. day): 90.0 ± 6.9 s | Effect on the physical performance of mice in swimming test (in words) (normal mice; [2]): ineffective | Number of errors Mean ± S.E.M. (normal rats; session 1): 16.4 ± 0.45 | Swimming time (sec) Mean ± SEM. (normal rats; session 1): 140.3 ± 9.54 s | Number of errors Mean ± S.E.M. (normal rats; session 2): 11.6 ± 0.40 | Swimming time (sec) Mean ± SEM. (normal rats; session 2): 89.9 ± 6.22 s | Number of errors Mean ± S.E.M. (normal rats; session 3): 6.2 ± 0.76 | Swimming time (sec) Mean ± SEM. (normal rats; session 3): 64.9 ± 7.29 s | Number of errors Mean ± S.E.M. (normal rats; session 4): 3.9 ± 0.35 | Swimming time (sec) Mean ± SEM. (normal rats; session 4): 34.8 ± 2.79 s | Effect on the learning process of rats in water labyrinth (in words) (normal rats; [2]): ineffective
